Data reported in PubChem BioAssay (NCI).
“And” between values parts separate entries of the source, which are not always exact repeats. Equal values may be shown once.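 Results reflect a 48-hour exposure of cells in 96-well plates to compound at five concentrations. GI50 = concentration required for 50% inhibition of growth. TGI denotes the concentration required for complete inhibition of growth.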

Tests used:
Test in all cases: NCI-60 cell line screen, 48 h
EKVX NSCLC = tested on: EKVX NSCLC
HOP-62 NSCLC = tested on: HOP-62 NSCLC
HOP-92 NSCLC = tested on: HOP-92 NSCLC
M14 melanoma = tested on: M14 melanoma
NCI-H226 lung = tested on: NCI-H226 lung
NCI-H522 lung = tested on: NCI-H522 lung
SF-268 CNS = tested on: SF-268 CNS
SF-295 CNS = tested on: SF-295 CNS
SNB-19 CNS = tested on: SNB-19 CNS
SNB-75 CNS = tested on: SNB-75 CNS

SMILES	GI50 (EKVX NSCLC)	TGI (EKVX NSCLC)	GI50 (HOP-62 NSCLC)	TGI (HOP-62 NSCLC)	GI50 (HOP-92 NSCLC)	TGI (HOP-92 NSCLC)	GI50 (M14 melanoma)	TGI (M14 melanoma)	GI50 (NCI-H226 lung)	TGI (NCI-H226 lung)	GI50 (NCI-H522 lung)	TGI (NCI-H522 lung)	GI50 (SF-268 CNS)	TGI (SF-268 CNS)	GI50 (SF-295 CNS)	TGI (SF-295 CNS)	GI50 (SNB-19 CNS)	TGI (SNB-19 CNS)	GI50 (SNB-75 CNS)	TGI (SNB-75 CNS)
CC(=O)Oc1cc2c(OC(C)=O)c(-c3c(C)cc4c(C(C)C)c(OC(C)=O)c(OC(C)=O)cc4c3OC(C)=O)c(C)cc2c(C(C)C)c1OC(C)=O	4.82 µM and 4.81 µM and 9.21 µM	10.6 µM and 9.92 µM and 26.7 µM	6.67 µM and 5.17 µM and 8.71 µM	18.8 µM and 11.7 µM and 24.1 µM	1.27 µM and 7.69 µM and 5.33 µM	4.11 µM and 18 µM and 16.7 µM	6.75 µM and 5.89 µM and 8.15 µM	18.5 µM and 12.5 µM and 19.3 µM	1.14 µM and 4.72 µM and 8.69 µM	2.58 µM and 11.1 µM and 20.9 µM	5.15 µM and 1.52 µM and 5.49 µM	10.5 µM and 3.23 µM and 11.5 µM	6.91 µM and 7.21 µM and 11.7 µM	39.7 µM and 29 µM and 37.4 µM	8.78 µM and 5.99 µM and 10.7 µM	26.7 µM and 12.5 µM and 30.6 µM	15.3 µM and 8.77 µM and 19.6 µM	> 31.7 µM and 25.2 µM and 47.5 µM	2.32 µM and 13.7 µM and 16.3 µM	24.9 µM and > 52.7 µM and 62.8 µM
O=C(COC(=O)c1cccc2c(=O)c3ccccc3[nH]c12)Nc1ccccc1		> 100 µM		> 100 µM		> 100 µM		> 100 µM		> 100 µM		73.4 µM		> 100 µM		> 100 µM		> 100 µM		> 100 µM
Cc1cc(O)cc(C)c1/C=C/c1cncc(-c2nn[nH]n2)c1	> 25 µM	> 25 µM	> 25 µM	> 25 µM	> 25 µM	> 25 µM	> 25 µM	> 25 µM	> 25 µM	> 25 µM	> 25 µM	> 25 µM	> 25 µM	> 25 µM	> 25 µM	> 25 µM	> 25 µM	> 25 µM	> 25 µM	> 25 µM
CCOC(=O)[C@@H](C)C[C@H](Cc1ccccc1)NC(=O)c1csc([C@@H](C[C@H](C(C)C)N(C)C(=O)[C@H](CC)NC(=O)[C@H]2CCCCN2C)OC(C)=O)n1	0.00484 µM	> 16.7 µM	0.00367 µM	> 16.7 µM	< 0.00167 µM	0.236 µM	0.00171 µM	0.00762 µM	0.00335 µM	0.102 µM	< 0.00167 µM	0.362 µM	< 0.027 µM	> 16.7 µM	< 0.00167 µM	> 4.03 µM	0.00199 µM	> 16.7 µM	< 0.00167 µM	> 16.7 µM
C/C(=C\COc1c2c(cc3c1CCO3)OC1(C=C2)OC(CC/C(C)=C/COc2c3ccoc3cc3oc(=O)ccc23)C(C)(C)O1)CCC(O)C(C)(C)O (stereo not given)	5.93 µM	> 100 µM	> 100 µM	> 100 µM	7.56 µM	> 100 µM	85.1 µM	> 100 µM	58.7 µM	> 100 µM	24.3 µM	> 100 µM	21.1 µM	> 100 µM	9.09 µM	> 100 µM	55.2 µM	> 100 µM	21.1 µM	> 100 µM
COc1ccc2c(c1OC)OCC(CN(C)C)C2=O (stereo not given)		49.9 µM		> 88.7 µM		11.3 µM		31.5 µM		> 67.4 µM		0.472 µM		53.2 µM		> 100 µM		> 100 µM		52.4 µM
COc1cnc2c(c1)C(=O)c1c-2n(CCCNC(C)C)c(=O)c2cc(F)ccc12	0.299 µM	1.73 µM	0.107 µM	0.427 µM	0.284 µM	2.54 µM	0.23 µM	1.3 µM	0.146 µM	0.325 µM	0.0385 µM	0.376 µM	0.207 µM	1.68 µM	0.0943 µM	0.549 µM	0.179 µM	1.32 µM	0.219 µM	1.39 µM
O=c1oc2ccc(-n3c(=O)c4ccccc4c4ccccc4c3=O)cc2c2ccccc12		> 100 µM		> 100 µM		84.5 µM		> 100 µM		> 100 µM		> 100 µM		> 100 µM		> 100 µM		> 100 µM		85.7 µM
O=C(/C(=C/c1ccc([N+](=O)[O-])cc1)SCc1ccc(F)cc1)c1ccc(Cl)cc1	11.5 µM	38.6 µM	18.9 µM	47.3 µM	19.2 µM	> 100 µM	3.91 µM	20.2 µM	13.7 µM	44.5 µM	1.88 µM	4.44 µM	9.44 µM	33.5 µM	7.09 µM	25.1 µM	3.28 µM	11.6 µM	73 µM	> 100 µM
CCCCCCCCCCCCCCCCOP(=O)(O)OP(=O)(O)OCC1OC(n2ccc(N)nc2=O)C(O)C1O (stereo not given)		> 100 µM		> 100 µM		> 100 µM		> 100 µM and 98.4 µM		> 100 µM	> 100 µM	> 100 µM		> 100 µM	> 100 µM and 46 µM	> 100 µM	> 100 µM and 23.8 µM	> 100 µM	> 100 µM	> 100 µM
CC[C@@]1(O)C(=O)OCc2c1cc1n(c2=O)Cc2c-1nc1cc3c(cc1c2C)OCO3		0.818 µM	< 0.0001 µM	0.314 µM and 0.238 µM		0.0782 µM	< 0.0001 µM	1.01 µM	< 0.0001 µM	0.0195 µM	0.000159 µM		0.00108 µM	0.0136 µM	< 0.0001 µM		0.000473 µM	0.0131 µM	0.00123 µM	0.947 µM
CCN(CC)CCNc1cc(-c2cccc(OC(F)(F)F)c2)nc2ccc(N3CCCC3)cc12	2.14 µM and 2.29 µM and 2.49 µM	5.82 µM and 6.24 µM and 8.91 µM	1.52 µM and 1.75 µM and 1.88 µM	2.96 µM and 3.24 µM and 4 µM	1.17 µM and 1.34 µM and 1.51 µM	2.84 µM and 3.09 µM and 4.68 µM	1.6 µM and 1.82 µM and 1.86 µM	3.12 µM and 3.51 µM and 3.63 µM	2.08 µM and 1.76 µM and 2.79 µM	4.26 µM and 3.45 µM and 8.02 µM	1.88 µM and 1.64 µM and 1.92 µM	3.63 µM and 3.24 µM and 4 µM	1.98 µM and 1.92 µM and 2.23 µM	4.18 µM and 3.96 µM and 5.89 µM	1.63 µM and 1.73 µM and 1.92 µM	3.23 µM and 3.36 µM and 3.79 µM	1.75 µM and 1.84 µM and 1.98 µM	3.4 µM and 3.31 µM and 3.8 µM	1.79 µM and 1.74 µM	4.29 µM and 5.78 µM
c1ccc(CN=C(NCc2ccccc2)NCc2ccccc2)cc1	1.85 µM	7.81 µM	12.7 µM	25.9 µM	3.18 µM	12.7 µM	4.18 µM	17.3 µM	6.04 µM	21.4 µM	8.35 µM	21.3 µM	4.32 µM	18.5 µM	1.21 µM	6.49 µM	11 µM	25 µM	2.37 µM	13 µM
